{"source": "patent US20250376445A1", "about": "“COMPOUNDS AND METHODS FOR YAP/TEAD MODULATION AND INDICATIONS THEREFOR” (OPNA BIO SA, priority 2023, published 2025)", "data": [{"tested_on": "TEAD-dependent transcription", "assay": "TEAD-dependent transcription cell-based reporter assay (MSTO-211H+12XGTIIC luciferase)", "design": "species or system human", "conditions": "Homo sapiens; MSTO-211H+12XGTIIC reporter cells, 24 hours compound incubation, luminescence normalized to viability; read-out: MSTO-211H GMean IC50 (uM) Cell Assay Reporter Cell Variant: TEAD", "outline": "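MSTO-211H mesothelioma cells stably carrying a 12×GTIIC TEAD-element luciferase reporter were treated with serial compound dilutions for 24 h at 37° C. Luminescence was normalized to CellTiter-Fluor viability signal, with percent inhibition referenced to DMSO (high) and 20 μM K-975 (low) controls. IC50 obtained by nonlinear regression.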", "units": {"IC50": "µM"}, "values": [{"compound": "O=C(c1ccc(C(F)(F)F)cc1)c1cccc2c1CCN(C(=O)CCc1cnc[nH]1)C2", "note": "[O-0048, 3-(1H-imidazol-5-yl)-1-(5-(4-(trifluoromethyl)benzoyl)-3,4-dihydroisoquinolin-2(1H)-yl)propan-1-one]", "IC50": "0.001 to 10"}, {"compound": "C[C@@H](NC(=O)c1cccc(N)n1)C(=O)N1CCc2c(cccc2-c2ccc(C(F)(F)F)cc2)C1", "note": "[O-0132, (R)-6-amino-N-(1-oxo-1-(5-(4-(trifluoromethyl)phenyl)-3,4-dihydroisoquinolin-2(1H)-yl)propan-2-yl)picolinamide]", "IC50": "0.001 to 10"}, {"compound": "C=CS(=O)(=O)N1CCc2c(cccc2-c2ccc(C(F)(F)F)cc2)C1", "note": "[O-0117, 5-(4-(trifluoromethyl)phenyl)-2-(vinylsulfonyl)-1,2,3,4-tetrahydroisoquinoline]", "IC50": "0.001 to 10"}, {"compound": "CS(=O)(=O)CCC(=O)N1CCc2c(cccc2C(O)c2ccc(C(F)(F)F)cc2)C1", "note": "(centres unmarked) [O-0082, 1-(5-(hydroxy(4-(trifluoromethyl)phenyl)methyl)-3,4-dihydroisoquinolin-2(1H)-yl)-3-(methylsulfonyl)propan-1-one]", "IC50": "0.001 to 10"}, {"compound": "C[C@@H](NC(=O)c1ccccn1)C(=O)N1CCc2ccc(-c3ccc(C(F)(F)F)cc3)cc2C1", "note": "[O-0177, (R)-N-(1-oxo-1-(7-(4-(trifluoromethyl)phenyl)-3,4-dihydroisoquinolin-2(1H)-yl)propan-2-yl)picolinamide]", "IC50": "0.001 to 10"}, {"compound": "CS(=O)(=O)c1nc(C(=O)N2CCc3ccc(C(=O)c4ccc(C(F)(F)F)cc4)cc3C2)c[nH]1", "note": "[O-0064, (2-(methylsulfonyl)-1H-imidazol-4-yl)(7-(4-(trifluoromethyl)benzoyl)-3,4-dihydroisoquinolin-2(1H)-yl)methanone]", "IC50": "0.001 to 10"}, {"compound": "CS(=O)(=O)CCC(=O)N1CCc2c(cccc2C(F)c2ccc(C(F)(F)F)cc2)C1", "note": "(centres unmarked) [O-0077, 1-(5-(fluoro(4-(trifluoromethyl)phenyl)methyl)-3,4-dihydroisoquinolin-2(1H)-yl)-3-(methylsulfonyl)propan-1-one]", "IC50": "0.001 to 10"}, {"compound": "C[C@@H](Nc1ccccn1)C(=O)N1CCc2cc(-c3ccc(C(F)(F)F)cc3)ccc2C1", "note": "[O-0145, (R)-2-(pyridin-2-ylamino)-1-(6-(4-(trifluoromethyl)phenyl)-3,4-dihydroisoquinolin-2(1H)-yl)propan-1-one]", "IC50": "0.001 to 10"}, {"compound": "O=C(CCS(=O)(=O)C(F)(F)F)N1CCc2c(cccc2C(O)c2ccc(C(F)(F)F)cc2)C1", "note": "(centres unmarked) [O-0004, 1-(5-(hydroxy(4-(trifluoromethyl)phenyl)methyl)-3,4-dihydroisoquinolin-2(1H)-yl)-3-((trifluoromethyl)sulfonyl)propan-1-one]", "IC50": "0.001 to 10"}, {"compound": "O=C(CCS(=O)(=O)C(F)(F)F)N1CCc2c(Cc3ccc(C(F)(F)F)cc3)cccc2C1", "note": "[O-0001, 1-(5-(4-(trifluoromethyl)benzyl)-3,4-dihydroisoquinolin-2(1H)-yl)-3-((trifluoromethyl)sulfonyl)propan-1-one]", "IC50": "0.001 to 10"}, {"compound": "O=C(c1ccc(C(F)(F)F)cc1)c1cccc2c1CCN(C(=O)c1ccc3nc(C(F)(F)F)[nH]c3c1)C2", "note": "[O-0073, (2-(trifluoromethyl)-1H-benzo[d]imidazol-6-yl)(5-(4-(trifluoromethyl)benzoyl)-3,4-dihydroisoquinolin-2(1H)-yl)methanone]", "IC50": "0.001 to 10"}]}]}
